Values of other authors in patent US6699701B1, “Method and device for sanitation using bacteriophages” (priority 2000, dated 2004).

Tested on: bacterial counts
Settings: fresh-cut fruits, most effective chemical sanitizer

OO [hydrogen peroxide]
maximum reduction rate in bacterial counts: ≤ 1.3 logs
